Data taken from patent publication US12454510B2, “Isophthalamide compound and use thereof” (METISA BIOTECHNOLOGY CO., LTD, priority 2019, dated 2025).
Read-outs that look alike come from different tables or passages of the source.

What was measured:
Type in all cases: in vivo
Chilo suppressalis = assay: Insecticidal activity against Chilo suppressalis, sprayed Oryza sativa seedlings/stalks; conditions: for Lethality rate (%, 3 days after the treatment) 1 mg/L / Lethality rate (%, 3 days after the treatment) 10 mg/L / Lethality rate (%, 3 days after the treatment) 0.5 mg/L: parallel comparison test, Table 6; for pest or weed control at 1 µg/mL / pest or weed control at 0.5 µg/mL / pest or weed control at 0.25 µg/mL: Chilo suppressalis, 72 h, 3 days after the treatment, 3rd instar larvae, read-out: lethality rate against Chilo suppressalis; for pest or weed control at 1 µg/mL: dose 1 mg/L; for pest or weed control at 0.5 µg/mL: dose 0.5 mg/L; for pest or weed control at 0.25 µg/mL: dose 0.25 mg/L
Description: (§1) After being dissolved in a mixed solvent of acetone/methanol (1:1), the test compound was diluted with water containing 0.1% (wt) Tween 80 to the desired concentration.
(§2) With Leucania separata, Plutella xylostella, and Chilo suppressalis as targets, airbrush spray method was used for the determination of the insecticidal activity.
Determination method: 1) Preparation of Oryza sativa seedlings: Oryza sativa was cultivated in a constant temperature room (a temperature of 26-28V, a relative humidity of about 60-80%, and a light illumination of 16 hL:8 hD) in a small plastic cup with a diameter of 4.5 cm and a height of 4 cm, and when the Oryza sativa grew up to the 4-5 leaf stage, robust and consistent Oryza sativa seedlings were selected for chemical treatment, and 3 repetitions were performed for each treatment. 2) Preparation for test insects: Chilo suppressalis at 3rd instar larvae were raised continuously indoors. 3) The Oryza sativa stems were sprayed and insects were introduced. Spraying was performed uniformly on the whole plant of the Oryza sativa seedlings, with 15 ml of compound solution for each treatment. The blank control was treated first, and then the above operations were repeated in the order of the test concentration from low to high. After the Oryza sativa seedlings were sprayed, they were placed in a cool place to dry the liquid, and about 5 cm of stalks at the base of the stems were cut and fed to the test insects. A glass petri dish with a diameter of 90 mm was placed with filter paper at the bottom of the dish, and then was moisturized by adding water. After that, about 5 rice stalks and 10 larvae were placed in each dish, and the petri dish was sealed with a non-woven fabric and placed in a constant temperature room for cultivation. The number of remaining live insects was investigated 3 days after the treatment.

Plutella xylostella = assay: Insecticidal activity against Plutella xylostella, airbrush spray on cabbage leaf discs; conditions: foliar, 72 h; for pest or weed control at 5 µg/mL: 5 mg/L, Table 5, read-out: Lethality rate (%, 3 days after the treatment) 5 mg/L
Description: as §1, §2
(§3) Determination method: Cabbage leaves were punched into leaf discs with a diameter of 2 cm with a puncher, and Airbrush spray treatment was carried out at a pressure of 10 psi (approximately 0.7 kg/cm^2) on the front and back sides of each leaf disc, with a spray volume of the compound to be tested of 0.5 ml. After drying in the shade, 10 of 3rd instar larvae were introduced for each treatment, and each treatment was repeated 3 times for. After the treatment, it was placed in an observation room at 25° C. and a relative humidity of 60-70%, and 3 days after the treatment, the number of surviving insects was investigated, and the mortality rate was calculated.

Leucania separata = assay: Insecticidal activity against Leucania separata, airbrush spray on corn leaf sections; conditions: Mythimna separata, 72 h; dose 0.05 mg/L, 3 days after the treatment, 3rd instar larvae; read-out: lethality rate against Leucania separata
Description: as §1, §2
as §3, with “Corn” for “Cabbage”, “cut” for “punched”, “into” for “into leaf discs with a diameter of”, “leaf sections,” for “with a puncher,”, “section,” for “disc,”, “times.” for “times for.”

[1] = 1 mg/L, parallel comparison test, Table 5, read-out: Lethality rate (%, 3 days after the treatment) 1 mg/L
[2] = 0.05 mg/L, parallel comparison test, Table 5, read-out: Lethality rate (%, 3 days after the treatment) 0.05 mg/L
[3] = 0.5 mg/L, parallel comparison test, Table 5, read-out: Lethality rate (%, 3 days after the treatment) 0.5 mg/L
[4] = dose 1 mg/L, 3 days after the treatment, 3rd instar larvae, read-out: lethality rate against Plutella xylostella
[5] = dose 0.5 mg/L, 3 days after the treatment, 3rd instar larvae, read-out: lethality rate against Plutella xylostella
[6] = dose 0.05 mg/L, 3 days after the treatment, 3rd instar larvae, read-out: lethality rate against Plutella xylostella

Row | Compound | pest or weed control at 1 µg/mL (Plutella xylostella; [1]) | pest or weed control at 5 µg/mL (Plutella xylostella; parallel comparison test) | pest or weed control at 0.05 µg/mL (Plutella xylostella; [2]) | pest or weed control at 0.5 µg/mL (Plutella xylostella; [3]) | pest or weed control at 1 µg/mL (Chilo suppressalis) | pest or weed control at 0.05 µg/mL (Leucania separata) | pest or weed control at 1 µg/mL (Plutella xylostella; [4]) | also measured
1 | N#CCCN(C(=O)c1cnccn1)c1cccc(C(=O)Nc2c(Br)cc(C(F)(C(F)(F)F)C(F)(F)F)cc2Br)c1F [CK1, reference compound] | 0% | 66.7% |  |  |  |  |  | Lethality rate (%, 3 days after the treatment) 1 mg/L (Chilo suppressalis): 0%; Lethality rate (%, 3 days after the treatment) 10 mg/L (Chilo suppressalis): 13.33%
2 | N#CCCN(C(=O)c1cnccn1)c1cccc(C(=O)Nc2c(Br)cc(C(F)(C(F)(F)F)C(F)(F)F)cc2C(F)(F)F)c1F [Compound 2-5] | 50% | 100% | 0% | 23.3% |  |  |  | Lethality rate (%, 3 days after the treatment) 0.5 mg/L (Chilo suppressalis): 0%; Lethality rate (%, 3 days after the treatment) 1 mg/L (Chilo suppressalis): 23.33%; Lethality rate (%, 3 days after the treatment) 10 mg/L (Chilo suppressalis): 70%
3 | N#CCCCN(C(=O)c1ccc(F)nc1)c1cccc(C(=O)Nc2c(Br)cc(C(F)(C(F)(F)F)C(F)(F)F)cc2Br)c1F [Compound 3] |  |  |  |  | ≥ 90% | ≥ 90% | ≥ 90% | 
4 | N#CCCCCN(C(=O)c1ccc(C(F)(F)F)nc1)c1cccc(C(=O)Nc2c(Br)cc(C(F)(C(F)(F)F)C(F)(F)F)cc2C(F)(F)F)c1F [Compound 28] |  |  |  |  | ≥ 90% | ≥ 90% | ≥ 90% | pest or weed control at 0.5 µg/mL (Chilo suppressalis): ≥ 90%; pest or weed control at 0.5 µg/mL (Plutella xylostella; [5]): ≥ 90%
5 | N#CCCN(C(=O)c1ccc(F)nc1)c1cccc(C(=O)Nc2c(I)cc(C(F)(C(F)(F)F)C(F)(F)F)cc2C(F)(F)F)c1F [Compound 14] |  |  |  |  | ≥ 90% | ≥ 90% | ≥ 90% | pest or weed control at 0.25 µg/mL (Chilo suppressalis): ≥ 90%; pest or weed control at 0.5 µg/mL (Chilo suppressalis): ≥ 90%; pest or weed control at 0.05 µg/mL (Plutella xylostella; [6]): ≥ 90%; pest or weed control at 0.5 µg/mL (Plutella xylostella; [5]): ≥ 90%
6 | N#CCCN(C(=O)c1ccc(F)nc1)c1cccc(C(=O)Nc2c(Br)cc(C(F)(C(F)(F)F)C(F)(F)F)cc2Br)c1F [Compound 2] | 100% | 100% | 43.3% | 86.7% | ≥ 90% | ≥ 90% | ≥ 90% | Lethality rate (%, 3 days after the treatment) 0.5 mg/L (Chilo suppressalis): 86.67%; Lethality rate (%, 3 days after the treatment) 1 mg/L (Chilo suppressalis): 100%; Lethality rate (%, 3 days after the treatment) 10 mg/L (Chilo suppressalis): 100%
7 | N#CCCN(C(=O)c1cccnc1)c1cccc(C(=O)Nc2c(Br)cc(C(F)(C(F)(F)F)C(F)(F)F)cc2Br)c1F [Compound 1-2] | 30% | 90% |  | 0% |  |  |  | Lethality rate (%, 3 days after the treatment) 1 mg/L (Chilo suppressalis): 0%; Lethality rate (%, 3 days after the treatment) 10 mg/L (Chilo suppressalis): 0%
8 | N#CCN(C(=O)c1ccc(F)nc1)c1cccc(C(=O)Nc2c(I)cc(C(F)(C(F)(F)F)C(F)(F)F)cc2C(F)(F)F)c1F [Compound 13] |  |  |  |  | ≥ 90% | ≥ 90% | ≥ 90% | pest or weed control at 0.25 µg/mL (Chilo suppressalis): ≥ 90%; pest or weed control at 0.5 µg/mL (Chilo suppressalis): ≥ 90%; pest or weed control at 0.05 µg/mL (Plutella xylostella; [6]): ≥ 90%; pest or weed control at 0.5 µg/mL (Plutella xylostella; [5]): ≥ 90%
9 | N#CCCN(C(=O)c1cnc(F)cn1)c1cccc(C(=O)Nc2c(Br)cc(C(F)(C(F)(F)F)C(F)(F)F)cc2C(F)(F)F)c1F [Compound 2-6] | 90% | 100% | 20% | 60% |  |  |  | 
10 | N#CCCN(C(=O)c1cnc(F)nc1)c1cccc(C(=O)Nc2c(Br)cc(C(F)(C(F)(F)F)C(F)(F)F)cc2C(F)(F)F)c1F [Compound 2-7] | 96.7% | 100% | 0% | 53.3% |  |  |  | 
11 | N#CCCCCN(C(=O)c1ccc(F)nc1)c1cccc(C(=O)Nc2c(Br)cc(C(F)(C(F)(F)F)C(F)(F)F)cc2Br)c1F [Compound 4] |  |  |  |  | ≥ 90% | ≥ 90% | ≥ 90% | 
12 | N#CCCN(C(=O)c1cnc(F)nc1)c1cccc(C(=O)Nc2c(Br)cc(C(F)(C(F)(F)F)C(F)(F)F)cc2Br)c1F [Compound 1-7] | 73.3% | 100% | 0% | 20% |  |  |  | 
13 | N#CCCN(C(=O)c1ccccn1)c1cccc(C(=O)Nc2c(Br)cc(C(F)(C(F)(F)F)C(F)(F)F)cc2C(F)(F)F)c1F [Compound 2-3] | 40% | 100% | 0% | 10% |  |  |  | 
14 | N#CCCN(C(=O)c1ccccn1)c1cccc(C(=O)Nc2c(Br)cc(C(F)(C(F)(F)F)C(F)(F)F)cc2Br)c1F [Compound 1-4] | 10% | 60% |  |  |  |  |  | 
15 | N#CCN(C(=O)c1ccc(F)nc1)c1cccc(C(=O)Nc2c(Br)cc(C(F)(C(F)(F)F)C(F)(F)F)cc2C(F)(F)F)c1F [Compound 9] |  |  |  |  | ≥ 90% | ≥ 90% | ≥ 90% | pest or weed control at 0.25 µg/mL (Chilo suppressalis): ≥ 90%; pest or weed control at 0.5 µg/mL (Chilo suppressalis): ≥ 90%; pest or weed control at 0.05 µg/mL (Plutella xylostella; [6]): ≥ 90%; pest or weed control at 0.5 µg/mL (Plutella xylostella; [5]): ≥ 90%
16 | N#CCN(C(=O)c1ccc(C(F)(F)F)nc1)c1cccc(C(=O)Nc2c(Br)cc(C(F)(C(F)(F)F)C(F)(F)F)cc2Br)c1F [Compound 17] |  |  |  |  | ≥ 90% | ≥ 90% | ≥ 90% | 
17 | N#CCCN(C(=O)c1ccncc1)c1cccc(C(=O)Nc2c(Br)cc(C(F)(C(F)(F)F)C(F)(F)F)cc2C(F)(F)F)c1F [Compound 2-2] | 93.3% | 100% | 0% | 30% |  |  |  | 
18 | N#CCCN(C(=O)c1ccncc1)c1cccc(C(=O)Nc2c(Br)cc(C(F)(C(F)(F)F)C(F)(F)F)cc2Br)c1F [Compound 1-3] | 76.7% | 100% | 0% | 13.3% |  |  |  | 
19 | N#CCCN(C(=O)c1ccc(F)cn1)c1cccc(C(=O)Nc2c(Br)cc(C(F)(C(F)(F)F)C(F)(F)F)cc2Br)c1F [Compound 1-5] | 60% | 83.3% | 0% | 33.3% |  |  |  | 
20 | N#CCCN(C(=O)c1ccc(Cl)nc1)c1cccc(C(=O)Nc2c(Br)cc(C(F)(C(F)(F)F)C(F)(F)F)cc2Br)c1F [Compound 1-1] | 50% | 93.3% |  | 6.67% |  |  |  | 
21 | N#CCCN(C(=O)c1cccnc1)c1cccc(C(=O)Nc2c(Br)cc(C(F)(C(F)(F)F)C(F)(F)F)cc2C(F)(F)F)c1F [Compound 2-1] | 60% | 100% | 0% | 20% |  |  |  | 
22 | N#CCCN(C(=O)c1cnc(F)cn1)c1cccc(C(=O)Nc2c(Br)cc(C(F)(C(F)(F)F)C(F)(F)F)cc2Br)c1F [Compound 1-6] | 60% | 100% | 0% | 16.7% |  |  |  | 
23 | N#CCCN(C(=O)c1ccc(F)cn1)c1cccc(C(=O)Nc2c(Br)cc(C(F)(C(F)(F)F)C(F)(F)F)cc2C(F)(F)F)c1F [Compound 2-4] | 90% | 100% | 33.3% | 63.3% |  |  |  | 
